US20260209247A1, “Substituted Tricyclic Compounds” (Lupin Limited, priority 2019, published 2026)
pIC50: −log10 of the molar value.

Assays:
[1] = molecular target: T1, nucleotide exchange on hKRASG12C mediated by hSOS1 (Homo sapiens, UniProt Q07889); assay: Guanine nucleotide exchange assay (GNEA, HTRF); format: biochemical; details: HIS-hSOS1 564-1049aa mediated GTP loading onto GST-hKRASG12C 1-169aa, read-out: Guanine nucleotide exchange inhibition IC50
T1 construct: HIS-hSOS1, 564-1049aa mediated GTP loading onto GST-hKRASG12C; His (N); made in house
T1 sequence (Q07889 564-1049): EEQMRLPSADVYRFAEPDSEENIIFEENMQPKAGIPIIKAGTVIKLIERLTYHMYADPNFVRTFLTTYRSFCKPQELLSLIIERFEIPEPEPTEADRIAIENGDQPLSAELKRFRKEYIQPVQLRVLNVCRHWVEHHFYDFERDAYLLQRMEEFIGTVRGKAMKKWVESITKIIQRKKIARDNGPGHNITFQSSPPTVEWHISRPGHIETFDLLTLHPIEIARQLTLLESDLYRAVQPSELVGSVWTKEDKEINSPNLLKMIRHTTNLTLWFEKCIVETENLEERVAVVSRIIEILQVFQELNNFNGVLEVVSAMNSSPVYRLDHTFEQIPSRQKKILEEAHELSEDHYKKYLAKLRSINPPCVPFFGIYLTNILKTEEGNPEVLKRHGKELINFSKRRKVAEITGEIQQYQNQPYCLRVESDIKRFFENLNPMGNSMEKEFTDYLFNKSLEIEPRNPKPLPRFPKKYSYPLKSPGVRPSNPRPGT
Outline: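 Compounds were pre-incubated 10 min at 20 °C with HIS-hSOS1 (564-1049aa) and EDA-GTP-DY-647P1 (working solution 10-50 nM and 200 nM) in pH 7.4 HEPES with NaCl, MgCl2, DTT, BSA and Igepal. GST-hKRASG12C (1-169aa, 25-125 nM working solution) plus anti-GST-Tb was added for 30-60 min at 20 °C. Percent inhibition came from the HTRF 665/620 nm ratio.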

[2] = test system: MIA PaCa-2 human pancreatic cancer xenograft; assay: MIA PaCa-2 xenograft efficacy study; format: in vivo; details: b.i.d., p.o., nude mice
Experimental: In vivo efficacy of compounds 68, 101b at a dose of 30 mg/kg, b.i.d., p.o. and compound 81 at a dose of 50 mg/kg, b.i.d., p.o., was evaluated in MIA PaCa-2 human pancreatic cancer xenograft model in nude mice.
MIA PaCa-2 tumor fragments were implanted subcutaneously in the right flank region of nude mice. Tumor-bearing mice were randomized once the tumors reached an average volume of ~141-142 mm^3 (tumor volume range 72-242 mm^3).
To assess the efficacy of compound 81, the tumor-bearing mice were randomized once the tumors reached an average volume of ~181-183 mm^3 (tumor volume range 73-251 mm^3). The mice were divided into the following groups (n=8/group): Vehicle control and compound 81 (50 mg/kg, b.i d., p.o.).

[3] = test system: pERK after EGF stimulation in DLD1 cells; assay: ERK phosphorylation assay (alphascreen pERK); format: cell-based; details: Homo sapiens, DLD-1, 2 h compound, 200 ng/ml hEGF for 5 minutes, read-out: ERK phosphorylation inhibition IC50
Outline: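 DLD1 cells pretreated with test compounds for 2 h, then stimulated with 200 ng/ml hEGF for 5 min. Lysates assayed by AlphaScreen SureFire for ERK1/2 p-T202/Y204, read after 2 h at 25–28 °C. % inhibition relative to the stimulated-minus-unstimulated vehicle window.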

[4] = molecular target: T2, protein-protein interaction between hSOS1 and hKRASG12C (Homo sapiens, UniProt Q07889); assay: KRAS-SOS1 interaction assay (HTRF); format: binding; details: GST-hSOS1 564-1049aa, HIS-hKRASG12C, read-out: KRAS-SOS1 Interaction inhibition IC50
T2 construct: GST-hSOS1, 564-1049aa expressed and purified in-house
T2 sequence (Q07889 564-1049): T1 sequence (Q07889 564-1049)
Outline: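 GST-hSOS1 (564-1049aa) at 10-50 nM working solution pre-incubated with compounds 10 min at 20° C in HEPES pH 7.4 buffer with EDTA, DTT, BSA and Igepal. HIS-hKRASG12C (100-300 nM working solution) added for 30-60 min, then anti-GST-d2/anti-HIS-Tb detection; percent inhibition from the 665/620 nm ratio.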

COC1(C)C(=O)N(C)c2cc3c(N[C@H](C)c4cccc(C(F)(F)C(C)(C)O)c4F)nc(C)nc3cc21 (single isomer, unassigned) [Compound 101b]
pIC50 [1]: 7.52 to 9.00 | tumor growth inhibition ([2]; 30 mg/kg): 65.71% | pIC50 [3]: 6.70 to 9.00 | pIC50 [4]: 8.00 to 9.00

Cc1nc(N[C@H](C)c2cccc(C(F)(F)C(C)(C)O)c2F)c2cc3c(cc2n1)C(C)(C)C(=O)N3C [Compound 68, (R)-4-((1-(3-(1,1-Difluoro-2-hydroxy-2-methylpropyl)-2-fluorophenyl)ethyl)amino)-2,6,8,8-tetramethyl-6,8-dihydro-7H-pyrrolo[2,3-g]quinazolin-7-one]
pIC50 [1]: 7.52 to 9.00 | tumor growth inhibition ([2]; 30 mg/kg): 63.82% | pIC50 [3]: 6.70 to 9.00 | pIC50 [4]: 8.00 to 9.00

Cc1nc(N[C@H](C)c2cccc(C(F)(F)CO)c2F)c2cc3c(cc2n1)N(C)C(=O)C3(C)C [Compound 80, (R)-4-((1-(3-(1,1-difluoro-2-hydroxyethyl)-2-fluorophenyl)ethyl)amino)-2,6,6,8-tetramethyl-6,8-dihydro-7H-pyrrolo[3,2-g]quinazolin-7-one]
pIC50 [1]: 7.52 to 9.00 | pIC50 [3]: 6.70 to 9.00 | pIC50 [4]: 8.00 to 9.00

Cc1nc(N[C@H](C)c2cccc(C(F)(F)C(C)(C)O)c2F)c2cc3c(cc2n1)C1(CCOC1)C(=O)N3C (single isomer, unassigned) [Compound 128b]
pIC50 [1]: 6.89 to 7.51 | pIC50 [3]: 6.70 to 9.00 | pIC50 [4]: 8.00 to 9.00

Cc1nc(N[C@H](C)c2cc(N)cc(C(F)(F)F)c2)c2cc3c(cc2n1)C1(CCOCC1)C(=O)N3C [Compound 138, (R)-4′-((1-(3-amino-5-(trifluoromethyl)phenyl)ethyl)amino)-2′,6′-dimethyl-2,3,5,6-tetrahydrospiro[pyran-4,8′-pyrrolo[2,3-g]quinazolin]-7′(6′H)-one]
pIC50 [1]: 6.89 to 7.51 | pIC50 [3]: 6.70 to 9.00 | pIC50 [4]: 7.60 to 7.96

Cc1nc(N[C@H](C)c2cccc(C(F)(F)C(C)(C)O)c2F)c2cc3c(cc2n1)n(C)c(=O)n3CC(F)F [Compound 106, (R)-8-((1-(3-(1,1-difluoro-2-hydroxy-2-methylpropyl)-2-fluorophenyl)ethyl)amino)-1-(2,2-difluoroethyl)-3,6-dimethyl-1H-imidazo[4,5-g]quinazolin-2(3H)-one]
pIC50 [1]: 7.52 to 9.00 | pIC50 [3]: 6.70 to 9.00 | pIC50 [4]: 8.00 to 9.00

Cc1nc(N[C@H](C)c2cccc(C(F)(F)C(C)(C)O)c2F)c2cc3c(cc2n1)OC(C(C)C)C(=O)N3C (single isomer, unassigned) [Compound 32b]
pIC50 [1]: 7.52 to 9.00 | pIC50 [3]: 6.70 to 9.00 | pIC50 [4]: 8.00 to 9.00

Cc1nc(N[C@H](C)c2cccc(C(F)(F)CO)c2F)c2cc3c(cc2n1)OC1(CC1)C(=O)N3C [Compound 25, (R)-4′-((1-(3-(1,1-difluoro-2-hydroxyethyl)-2-fluorophenyl)ethyl)amino)-2′,6′-dimethylspiro[cyclopropane-1,8′-[1,4]oxazino[3,2-g]quinazolin]-7′(6′H)-one]
pIC50 [1]: 7.52 to 9.00 | pIC50 [3]: 6.70 to 9.00 | pIC50 [4]: 8.00 to 9.00

CCN1C(=O)C(C)(C)c2cc3c(N[C@H](C)c4cccc(C(F)(F)CO)c4F)nc(C)nc3cc21 [Compound 88, (R)-4-((1-(3-(1,1-difluoro-2-hydroxyethyl)-2-fluorophenyl)ethyl)amino)-8-ethyl-2,6,6-trimethyl-6,8-dihydro-7H-pyrrolo[3,2-g]quinazolin-7-one]
pIC50 [1]: 7.52 to 9.00 | pIC50 [3]: 6.70 to 9.00 | pIC50 [4]: 8.00 to 9.00

Cc1nc(N[C@H](C)c2cccc(C(F)(F)C(C)(C)O)c2F)c2cc3c(cc2n1)N(C)C(=O)C3(C)C [Compound 81, (R)-4-((1-(3-(1,1-difluoro-2-hydroxy-2-methylpropyl)-2-fluorophenyl)ethyl)amino)-2,6,6,8-tetramethyl-6,8-dihydro-7H-pyrrolo[3,2-g]quinazolin-7-one]
pIC50 [1]: 7.52 to 9.00 | tumor growth inhibition ([2]; 50 mg/kg): 67.68% | pIC50 [3]: 6.70 to 9.00 | pIC50 [4]: 8.00 to 9.00

Cc1nc(N[C@H](C)c2cccc(C(F)(F)C(C)(C)O)c2F)c2cc3c(cc2n1)N(C)C(C)C(=O)N3C (single isomer, unassigned) [Compound 27b]
pIC50 [1]: 7.52 to 9.00 | pIC50 [3]: 6.70 to 9.00 | pIC50 [4]: 8.00 to 9.00

COCC1(C)C(=O)N(C)c2cc3c(N[C@H](C)c4cccc(C(F)(F)C(C)(C)O)c4F)nc(C)nc3cc21 (mixture of isomers) [Compound 98, (R&S)-4-(((R)-1-(3-(1,1-difluoro-2-hydroxy-2-methylpropyl)-2-fluorophenyl)ethyl)amino)-8-(methoxymethyl)-2,6,8-trimethyl-6,8-dihydro-7H-pyrrolo[2,3-g]quinazolin-7-one]
pIC50 [1]: 7.52 to 9.00 | pIC50 [3]: 6.70 to 9.00 | pIC50 [4]: 7.60 to 7.96

Cc1nc(N[C@H](C)c2cccc(C(F)(F)C(C)(C)O)c2F)c2cc3c(cc2n1)C(C)(C)CN3C [Compound 75, (R)-1,1-difluoro-1-(2-fluoro-3-(1-((2,6,8,8-tetramethyl-7,8-dihydro-6H-pyrrolo[2,3-g]quinazolin-4-yl)amino)ethyl)phenyl)-2-methylpropan-2-ol]
pIC50 [1]: 6.89 to 7.51 | pIC50 [3]: 6.70 to 9.00 | pIC50 [4]: 7.60 to 7.96

CCC1(CC)C(=O)N(C)c2cc3nc(C)nc(N[C@H](C)c4cccc(C(F)(F)C(C)(C)O)c4F)c3cc21 [Compound 91, (R)-4-((1-(3-(1,1-difluoro-2-hydroxy-2-methylpropyl)-2-fluorophenyl)ethyl)amino)-6,6-diethyl-2,8-dimethyl-6,8-dihydro-7H-pyrrolo[3,2-g]quinazolin-7-one]
pIC50 [1]: 6.89 to 7.51 | pIC50 [3]: 6.70 to 9.00 | pIC50 [4]: 7.60 to 7.96

CNCC(C)(O)C(F)(F)c1cccc([C@@H](C)Nc2nc(C)nc3cc4c(cc23)N(C)C(=O)C(C)(C)O4)c1F (stereo partly drawn) [Compound 55, (R&S)-4-(((1R)-1-(3-(1,1-difluoro-2-hydroxy-2-methyl-3-(methylamino)propyl)-2-fluorophenyl)ethyl)amino)-2,6,8,8-tetramethyl-6H-[1,4]oxazino[3,2-g]quinazolin-7(8H)-one]
pIC50 [1]: 7.52 to 9.00 | pIC50 [3]: 6.70 to 9.00 | pIC50 [4]: 8.00 to 9.00

Cc1nc(N[C@H](C)c2cccc(C(F)(F)CO)c2F)c2cc3c(cc2n1)OC(C)C(=O)N3C (single isomer, unassigned) [Compound 30b]
pIC50 [1]: 7.52 to 9.00 | pIC50 [3]: 6.70 to 9.00 | pIC50 [4]: 8.00 to 9.00

Cc1nc(N[C@H](C)c2cccc(C(F)(F)C(C)(C)O)c2F)c2cc3c(cc2n1)OCC(C)(C)N3C [Compound 37, (R)-1,1-Difluoro-1-(2-fluoro-3-(1-((2,6,7,7-tetramethyl-7,8-dihydro-6H-[1,4]oxazino[3,2-g]quinazolin-4-yl)amino)ethyl)phenyl)-2-methylpropan-2-ol]
pIC50 [1]: 7.52 to 9.00 | pIC50 [3]: 6.70 to 9.00 | pIC50 [4]: 8.00 to 9.00

Cc1nc(N[C@H](C)c2cccc(C(F)(F)CO)c2F)c2cc3c(cc2n1)O[C@@H](C)CN3C (racemic) [Compound 36a, 2,2-difluoro-2-(2-fluoro-3-((R)-1-(((S/R)-2,6,8-trimethyl-7,8-dihydro-6H-[1,4]oxazino[3,2-g]quinazolin-4-yl)amino)ethyl)phenyl)ethan-1-ol]
pIC50 [1]: 7.52 to 9.00 | pIC50 [3]: 6.70 to 9.00 | pIC50 [4]: 8.00 to 9.00

Cc1nc(N[C@H](C)c2cccc(C(F)(F)C(C)(C)O)c2F)c2cc3c(cc(C)c(=O)n3C)cc2n1 [Compound 38, (R)-4-((1-(3-(1,1-Difluoro-2-hydroxy-2-methylpropyl)-2-fluorophenyl)ethyl)amino)-2,6,8-trimethylpyrido[2,3-g]quinazolin-7(6H)-one]
pIC50 [1]: 7.52 to 9.00 | pIC50 [3]: 6.70 to 9.00 | pIC50 [4]: 8.00 to 9.00
